From patent publication US20240317710A1, “CRYSTALLINE CSF-1R INHIBITOR ACIDIC SALT, PREPARATION METHOD THEREFOR AND USE THEREOF” (Abbisko Therapeutics Co. Ltd., priority 2021, published 2024)
Counter-ions that a name gives are not always drawn.

Columns and labels:
[1] = Solubility determination in deionized water; format: physicochemical; settings: for Solubility S: ultrasonication, stepwise addition of water; for Dissolution result: visual observation
Description: About 2 mg of each of the various crystalline acidic salts and the compound of formula (I) in free form was precisely weighed out into a 2 mL glass vial, and about 100 μL of deionized water was added each time; the mixture was ultrasonicated, and if the compound was not dissolved, the step of adding deionized water and performing ultrasonication was repeated until the compound was completely dissolved or the concentration was <0.2 mg/mL. The total volume of the water added was recorded, the dissolution behavior and result were observed, and the solubility of each compound was calculated.

[2] = Hygroscopic behavior test by dynamic vapor sorption (DVS); format: physicochemical; settings: for Hygroscopic weight gain %: 25° C., DVS
Text: The experimental method of characterizing the crystalline acidic salts of the compound of formula (I) using dynamic vapor sorption (DVS) is as follows: a small amount of crystalline acidic salt powder of the compound of formula (I) was placed in a precision sample pan that came with the instrument; after the sample was loaded, the aluminum pan was sent into the instrument for analysis. In the present patent, the instruments used for dynamic vapor sorption were all the DVS Intrinsic model, the experimental parameter was set to using nitrogen as a carrier gas, the constant temperature was set to 25° C., the rate of mass percentage change over a unit of time (dm/dt)=0.01%/min was used as a criterion for determining if an equilibrium is reached, and the program humidity change cycle was set as follows: the initial relative humidity was 0%, the relative humidity was 90% at the end of the cycle, 2 cycles were set, and each 10% R.H. change was a step.
The inventors of the present invention measured the hygroscopic weight gains of each of the various crystalline forms in various relative humidity conditions (hygroscopic weight gain/pre-hygroscopic weight[…]) according to the dynamic vapor sorption method, and assessed the hygroscopicity of the different crystalline compounds.

| Solubility S [1] | Dissolution result [1] | Hygroscopic weight gain % ([2]; relative humidity 0.0 %) [%] | Hygroscopic weight gain % ([2]; relative humidity 10.0 %) [%] | Hygroscopic weight gain % ([2]; relative humidity 20.0 %) [%] | Hygroscopic weight gain % ([2]; relative humidity 30.0 %) [%] | Hygroscopic weight gain % ([2]; relative humidity 40.0 %) [%] | Hygroscopic weight gain % ([2]; relative humidity 50.0 %) [%] | Hygroscopic weight gain % ([2]; relative humidity 60.0 %) [%] | Hygroscopic weight gain % ([2]; relative humidity 70.0 %) [%] | Hygroscopic weight gain % ([2]; relative humidity 80.0 %) [%] | Hygroscopic weight gain % ([2]; relative humidity 90.0 %) [%] | hygroscopic weight gain [2] | Compound |
| --- | --- | --- | --- | --- | --- | --- | --- | --- | --- | --- | --- | --- | --- |
| S > 20 mg/mL | Clear solution | – | – | – | – | – | – | – | – | – | – | – | Cc1nc(NC(=O)N2CCC(C)(C)C2=O)ccc1Oc1ccnc(-c2cnn(C)c2)c1 [Sulfate crystalline form I, 3,3-dimethyl-N-(6-methyl-5-((2-(1-methyl-1H-pyrazol-4-yl)pyridin-4-yl)oxy)pyridin-2-yl)-2-oxopyrrolidine-1-carboxamide] |
| S > 20 mg/mL | Clear solution | – | – | – | – | – | – | – | – | – | – | – | Cc1nc(NC(=O)N2CCC(C)(C)C2=O)ccc1Oc1ccnc(-c2cnn(C)c2)c1 [Citrate crystalline form I, 3,3-dimethyl-N-(6-methyl-5-((2-(1-methyl-1H-pyrazol-4-yl)pyridin-4-yl)oxy)pyridin-2-yl)-2-oxopyrrolidine-1-carboxamide] |
| S > 20 mg/mL | Clear solution | 0.00 | 0.83 | 1.79 | 2.42 | 2.88 | 3.32 | 3.77 | 4.44 | 5.17 | 10.61 | – | Cc1nc(NC(=O)N2CCC(C)(C)C2=O)ccc1Oc1ccnc(-c2cnn(C)c2)c1 [Tartrate crystalline form I, 3,3-dimethyl-N-(6-methyl-5-((2-(1-methyl-1H-pyrazol-4-yl)pyridin-4-yl)oxy)pyridin-2-yl)-2-oxopyrrolidine-1-carboxamide] |
| S > 20 mg/mL | Clear solution | 0.00 | 0.13 | 0.24 | 0.34 | 0.42 | 0.52 | 0.63 | 0.81 | 1.37 | 19.40 | less than 10% | Cc1nc(NC(=O)N2CCC(C)(C)C2=O)ccc1Oc1ccnc(-c2cnn(C)c2)c1 [Hydrochloride crystalline form I, 3,3-dimethyl-N-(6-methyl-5-((2-(1-methyl-1H-pyrazol-4-yl)pyridin-4-yl)oxy)pyridin-2-yl)-2-oxopyrrolidine-1-carboxamide] |
| S < 1.5 mg/mL | Not clear | – | – | – | – | – | – | – | – | – | – | – | Cc1nc(NC(=O)N2CCC(C)(C)C2=O)ccc1Oc1ccnc(-c2cnn(C)c2)c1 [Compound in free form, 3,3-dimethyl-N-(6-methyl-5-((2-(1-methyl-1H-pyrazol-4-yl)pyridin-4-yl)oxy)pyridin-2-yl)-2-oxopyrrolidine-1-carboxamide] |
| S > 20 mg/mL | Clear solution | – | – | – | – | – | – | – | – | – | – | – | Cc1nc(NC(=O)N2CCC(C)(C)C2=O)ccc1Oc1ccnc(-c2cnn(C)c2)c1 [Malate crystalline form I, 3,3-dimethyl-N-(6-methyl-5-((2-(1-methyl-1H-pyrazol-4-yl)pyridin-4-yl)oxy)pyridin-2-yl)-2-oxopyrrolidine-1-carboxamide] |
| S > 20 mg/mL | Clear solution | 0.02 | 1.19 | 1.86 | 2.32 | 2.78 | 3.37 | 3.97 | 4.66 | 5.46 | 6.383 | – | Cc1nc(NC(=O)N2CCC(C)(C)C2=O)ccc1Oc1ccnc(-c2cnn(C)c2)c1 [Phosphate crystalline form I, 3,3-dimethyl-N-(6-methyl-5-((2-(1-methyl-1H-pyrazol-4-yl)pyridin-4-yl)oxy)pyridin-2-yl)-2-oxopyrrolidine-1-carboxamide] |
| S > 20 mg/mL | Clear solution | 0.00 | 0.11 | 0.18 | 0.20 | 0.24 | 0.31 | 0.88 | 8.93 | 12.44 | 23.15 | – | Cc1nc(NC(=O)N2CCC(C)(C)C2=O)ccc1Oc1ccnc(-c2cnn(C)c2)c1 [Methanesulfonate crystalline form II, 3,3-dimethyl-N-(6-methyl-5-((2-(1-methyl-1H-pyrazol-4-yl)pyridin-4-yl)oxy)pyridin-2-yl)-2-oxopyrrolidine-1-carboxamide] |
| S > 20 mg/mL | Clear solution | – | – | – | – | – | – | – | – | – | – | – | Cc1nc(NC(=O)N2CCC(C)(C)C2=O)ccc1Oc1ccnc(-c2cnn(C)c2)c1 [Fumarate crystalline form I, 3,3-dimethyl-N-(6-methyl-5-((2-(1-methyl-1H-pyrazol-4-yl)pyridin-4-yl)oxy)pyridin-2-yl)-2-oxopyrrolidine-1-carboxamide] |
